Measured values taken from patent US7842719B2 (priority 2002, dated 2010).
≈ marks a conversion by molar mass, not a printed value.

Experiments:
CMV AD-169 = type: cell-based, human cytomegalovirus
VZV OKA = type: cell-based, varicella zoster virus
BVDV-strain Pe515 = type: cell-based, bovine viral diarrhea virus
HIV-2 (ROD) = type: cell-based, human immunodeficiency virus
VV = type: cell-based, vaccinia virus
CEM/0 = type: cell-based, human
Molt4/C8 = type: cell-based, human
FM3A/0 = type: cell-based, murine
CMV Davis = type: cell-based, human cytomegalovirus
VZV YS = type: cell-based, varicella zoster virus
L1210/0 = type: cell-based, murine
HSV-1 (KOS) = type: cell-based, herpes simplex virus
HIV-1 (IIIB) = type: cell-based, human immunodeficiency virus
HSV-2 (G) = type: cell-based, herpes simplex virus
BVDV I cp = type: cell-based, Bovine viral diarrhea virus
BDV = type: cell-based, Border disease virus

C[C@@H]1CC[C@H]2[C@@H](C)C(=O)O[C@@H]3O[C@@]4(C)CC[C@@H]1[C@]32OO4 [Artemisinin, artemisinin]
EC50 CMV AD-169 (HEL) (CMV AD-169): >50 µg/mL | EC50 VZV (HEL) OKA (VZV OKA): >50 µg/mL | EC50 BVDV (BVDV-strain Pe515): 0.4 µg/mL (≈ 1.42 µM) | activity against BVDV (BVDV-strain Pe515): strong anti-viral activity | EC50 HIV-2 (ROD) (CEM) (HIV-2 (ROD)): >20 µg/mL | EC50 VV (E6SM) (VV): 240 µg/mL (≈ 850 µM) | antiviral activity against VV (VV): showed antiviral activity | activity against tumor cell line (CEM/0): no interesting activity | activity against tumor cell line (Molt4/C8): no interesting activity | activity against tumor cell line (FM3A/0): no interesting activity | EC50 CMV Davis (HEL) (CMV Davis): >50 µg/mL | EC50 VZV (HEL) YS (VZV YS): >50 µg/mL | activity against tumor cell line (L1210/0): no interesting activity | EC50 HSV-1 (KOS) (E6SM) (HSV-1 (KOS)): >400 µg/mL | EC50 HIV-1 (IIIB) (CEM) (HIV-1 (IIIB)): >20 µg/mL | cell toxicity (MDBK cells): stayed low | EC50 HSV-2 (G) (E6SM) (HSV-2 (G)): 240 µg/mL (≈ 850 µM) | antiviral activity against HSV-2 (HSV-2 (G)): showed antiviral activity

C[C@H]1[C@@H](O)O[C@@H]2O[C@@]3(C)CC[C@H]4[C@H](C)CC[C@@H]1[C@@]24OO3 [Dihydroartemisinin, dihydroartemisinin]
EC50 BVDV (BVDV-strain Pe515): 0.05 µg/mL (≈ 0.176 µM) | activity against BVDV (BVDV-strain Pe515): strong anti-viral activity | MTC MDBK (minimal toxic concentration) (MDBK cells): 0.4 µg/mL | cell toxicity (MDBK cells): stayed low

C[C@H]1[C@H](OC(=O)CCC(=O)O)O[C@@H]2O[C@@]3(C)CC[C@H]4[C@H](C)CC[C@@H]1[C@@]24OO3 [Artensunate, artesunate]
EC50 BVDV (BVDV-strain Pe515): 0.07 µg/mL (≈ 0.182 µM) | activity against BVDV (BVDV-strain Pe515): strong anti-viral activity | MTC MDBK (minimal toxic concentration) (MDBK cells): 0.4 µg/mL | cell toxicity (MDBK cells): stayed low

CO[C@H]1O[C@@H]2O[C@@]3(C)CC[C@H]4[C@H](C)CC[C@@H]([C@H]1C)[C@@]24OO3 [Artemether, artemether]
EC90 (BVDV I cp): 0.16 µg/mL (≈ 0.536 µM) | EC50 BVDV (BVDV-strain Pe515): 0.3 µg/mL (≈ 1.01 µM) | activity against BVDV (BVDV-strain Pe515): strong anti-viral activity | toxic concentration (Non infected cells): around 100 μg/ml | EC90 (BDV): 0.8 µg/mL (≈ 2.68 µM) | cell toxicity (MDBK cells): stayed low
